Measurements published in US20230399312A1, “SUBSTITUTED PYRIMIDINES AND METHODS OF USE” (THERAVANCE BIOPHARMA R&D IP, LLC, priority 2020, published 2023).

Experiments:
[1] = test system: TGF-β-stimulated SMAD3 phosphorylation in BEAS-2B cells; experiment: Cellular ALK5 potency assay, inhibition of TGF-β stimulated pSMAD3 formation in BEAS-2B cells; type: cell-based; conditions: Homo sapiens, pSMAD3, TGF-β 10 ng/mL, read-out: BEAS2B pIC50 (converted)
Procedure, shortened: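 Cells were seeded overnight, rinsed into HEPES/BSA-supplemented HBSS, and dosed with serially diluted compound for 1 h at 37 °C, 5% CO2. TGF-β stimulation (10 ng/mL final) followed for 30 min, then lysis and AlphaLISA pSMAD3 measurement; potency reported as pIC50.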

[2] = target: T1, recombinant human ALK5 (TGF-βR1) protein (Homo sapiens, UniProt P36897); experiment: Biochemical ALK5 (TGF-βR1) assay to measure pKi (LANCE Ultra ULight kinase assay); conditions: apparent pKi, converted from pIC50 by Cheng-Prusoff
T1 construct: purchased Life Technologies PR9075A
T1 sequence (P36897 34-503): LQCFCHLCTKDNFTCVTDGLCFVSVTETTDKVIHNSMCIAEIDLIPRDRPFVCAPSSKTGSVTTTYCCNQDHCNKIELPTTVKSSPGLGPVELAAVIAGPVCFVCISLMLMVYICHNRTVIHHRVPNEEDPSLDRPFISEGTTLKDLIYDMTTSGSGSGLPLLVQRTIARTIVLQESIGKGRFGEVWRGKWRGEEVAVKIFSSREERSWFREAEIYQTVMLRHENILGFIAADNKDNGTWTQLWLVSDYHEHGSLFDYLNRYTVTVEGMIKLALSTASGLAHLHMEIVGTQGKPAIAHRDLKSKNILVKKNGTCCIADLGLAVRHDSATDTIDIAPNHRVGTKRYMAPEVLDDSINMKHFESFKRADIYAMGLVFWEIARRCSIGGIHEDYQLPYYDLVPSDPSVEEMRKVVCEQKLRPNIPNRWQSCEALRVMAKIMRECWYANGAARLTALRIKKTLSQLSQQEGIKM
Procedure, shortened: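 Dose-response series of each compound were preincubated with the kinase for 60 minutes at room temperature. Phosphorylation proceeded for 60 minutes at 37 °C after ATP addition, was quenched with EDTA, and was detected with a europium anti-phospho-Thr1342 antibody by TR-FRET; pKi was calculated from pIC50.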

**Q.** How did the IC50 [1] turn out when `Cc1cccc(-c2nccc(Nc3ccnc(Nc4csc(NC(=O)C5CCNCC5)c4)n3)n2)n1` [Compound 452, N-(4-((4-((2-(6-methylpyridin-2-yl)pyrimidin-4-yl)amino)pyrimidin-2-yl)amino)thiophen-2-yl)piperidine-4-carboxamide] was run?
**A.** Its IC50 is no more than 20 nM.

**Q.** And the Ki [2]?
**A.** Its Ki is 0.0398 to 0.316 nM.

**Q.** What does the source list for `Cc1cccc(-c2nccc(Nc3ccnc(Nc4ccc(CN5C[C@H](C)NC[C@@H]5C)cc4)n3)n2)n1` [Compound 453, N2-[4-[[(2S,5S)-2,5-dimethylpiperazin-1-yl]methyl]phenyl]-N4-[2-(6-methyl-2-pyridyl)pyrimidin-4-yl]pyrimidine-2,4-diamine]?
**A.** IC50 [1]: 25.1 to 158 nM; Ki [2]: 0.0398 to 0.316 nM

**Q.** With `Cc1cccc(-c2nccc(Nc3ccnc(Nc4ccc(N5CCCC(C(=O)O)C5)cc4)n3)n2)n1` (stereo not shown) [Compound 454, 1-[4-[[4-[[2-(6-methyl-2-pyridyl)pyrimidin-4-yl]amino]pyrimidin-2-yl]amino]phenyl]piperidine-3-carboxylic acid] as the compound, how does the IC50 [1] read?
**A.** Its IC50 is 200 to 1260 nM.

**Q.** What about the Ki [2] of the same compound?
**A.** Its Ki is 0.0398 to 0.316 nM.

**Q.** `Cc1cccc(-c2nccc(Nc3ccnc(Nc4ccc(NS(=O)(=O)c5c[nH]cn5)cc4)n3)n2)n1` [Compound 455, N-[4-[[4-[[2-(6-methyl-2-pyridyl)pyrimidin-4-yl]amino]pyrimidin-2-yl]amino]phenyl]-1H-imidazole-4-sulfonamide] was tested. Which IC50 [1] did it give?
**A.** The IC50 was 200 to 1260 nM.

**Q.** And the Ki [2]?
**A.** The Ki was 0.398 to 3.16 nM.

**Q.** Which IC50 [1] does the source give for `Cc1cccc(-c2nccc(Nc3ccnc(Nc4ccc(N5CCN(C6CC6)CC5)cc4)n3)n2)n1` [Compound 457, N2-[4-(4-cyclopropylpiperazin-1-yl)phenyl]-N4-[2-(6-methyl-2-pyridyl)pyrimidin-4-yl]pyrimidine-2,4-diamine] here?
**A.** The IC50 was 25.1 to 158 nM.

**Q.** What about the Ki [2] of the same compound?
**A.** The Ki was 0.0398 to 0.316 nM.

**Q.** How did the IC50 [1] turn out when `Cc1cccc(-c2nccc(Nc3ccnc(Nc4ccc(C)c(CN5C6CCC5CNC6)c4)n3)n2)n1` [Compound 458, N2-[3-(3,8-diazabicyclo[3.2.1]octan-8-ylmethyl)-4-methyl-phenyl]-N4-[2-(6-methyl-2-pyridyl)pyrimidin-4-yl]pyrimidine-2,4-diamine] was run?
**A.** Its IC50 is 25.1 to 158 nM.

**Q.** What about the Ki [2] of the same compound?
**A.** The Ki was 0.0398 to 0.316 nM.

**Q.** How did the IC50 [1] turn out when `Cc1cccc(-c2nccc(Nc3ccnc(Nc4cccc(C(=O)O[C@@H]5CCNC5)c4)n3)n2)n1` [Compound 459, [(3R)-pyrrolidin-3-yl] 3-[[4-[[2-(6-methyl-2-pyridyl)pyrimidin-4-yl]amino]pyrimidin-2-yl]amino]benzoate] was run?
**A.** The IC50 was 25.1 to 158 nM.

**Q.** And the Ki [2]?
**A.** The Ki was 0.398 to 3.16 nM.

**Q.** For `Cc1cccc(-c2nccc(Nc3ccnc(Nc4nc(CN5CCC[C@@H](C(=O)O[C@@H]6CCN(C)C6)C5)cs4)n3)n2)n1` [Compound 460, [(3R)-1-methylpyrrolidin-3-yl] (3R)-1-[[2-[[4-[[2-(6-methyl-2-pyridyl)pyrimidin-4-yl]amino]pyrimidin-2-yl]amino]thiazol-4-yl]methyl]piperidine-3-carboxylate], which IC50 [1] is on record?
**A.** The IC50 was 25.1 to 158 nM.

**Q.** What about the Ki [2] of the same compound?
**A.** The Ki was 0.0398 to 0.316 nM.

**Q.** `Cc1cccc(-c2nccc(Nc3ccnc(Nc4ccc(F)c(CN5CCSCC5)c4)n3)n2)n1` [Compound 461, N2-[4-fluoro-3-(thiomorpholinomethyl)phenyl]-N4-[2-(6-methyl-2-pyridyl)pyrimidin-4-yl]pyrimidine-2,4-diamine] was tested. Which IC50 [1] did it give?
**A.** The IC50 was 25.1 to 158 nM.

**Q.** What about the Ki [2] of the same compound?
**A.** The Ki was 0.398 to 3.16 nM.

**Q.** With `COC(=O)CC1CNCCN1c1ccc(Nc2nccc(Nc3ccnc(-c4cccc(C)n4)n3)n2)cc1` (stereo not shown) [Compound 462, methyl 2-[1-[4-[[4-[[2-(6-methyl-2-pyridyl)pyrimidin-4-yl]amino]pyrimidin-2-yl]amino]phenyl]piperazin-2-yl]acetate] as the compound, how does the IC50 [1] read?
**A.** The IC50 was 25.1 to 158 nM.

**Q.** What about the Ki [2] of the same compound?
**A.** Its Ki is 0.0398 to 0.316 nM.

**Q.** Which IC50 [1] does the source give for `Cc1cccc(-c2nccc(Nc3ccnc(Nc4ccc(CN5CCN[C@H](CO)C5)cc4)n3)n2)n1` [Compound 463, [(2S)-4-[[4-[[4-[[2-(6-methyl-2-pyridyl)pyrimidin-4-yl]amino]pyrimidin-2-yl]amino]phenyl]methyl]piperazin-2-yl]methanol] here?
**A.** Its IC50 is 25.1 to 158 nM.

**Q.** And the Ki [2]?
**A.** Its Ki is 0.0398 to 0.316 nM.

**Q.** How did the IC50 [1] turn out when `Cc1cccc(-c2nccc(Nc3ccnc(Nc4ccc(C(=O)O[C@@H]5CCN(C)C5)cc4)n3)n2)n1` [Compound 464, [(3R)-1-methylpyrrolidin-3-yl] 4-[[4-[[2-(6-methyl-2-pyridyl)pyrimidin-4-yl]amino]pyrimidin-2-yl]amino]benzoate] was run?
**A.** The IC50 was 25.1 to 158 nM.

**Q.** What about the Ki [2] of the same compound?
**A.** The Ki was 0.0398 to 0.316 nM.

**Q.** What does the source list for `Cc1cccc(-c2nccc(Nc3ccnc(Nc4ccc(NC(=O)C5CCN(C6CCNC6)CC5)cc4)n3)n2)n1` (stereo not shown) [Compound 465, N-[4-[[4-[[2-(6-methyl-2-pyridyl)pyrimidin-4-yl]amino]pyrimidin-2-yl]amino]phenyl]-1-pyrrolidin-3-yl-piperidine-4-carboxamide]?
**A.** IC50 [1]: ≤ 20 nM; Ki [2]: 0.0398 to 0.316 nM

**Q.** How did the IC50 [1] turn out when `CC[C@H](C)OC(=O)Cc1cc(Nc2nccc(Nc3ccnc(-c4cccc(C)n4)n3)n2)ccc1N1CCNCC1` [Compound 466, [(1S)-1-methylpropyl] 2-[5-[[4-[[2-(6-methyl-2-pyridyl)pyrimidin-4-yl]amino]pyrimidin-2-yl]amino]-2-piperazin-1-yl-phenyl]acetate] was run?
**A.** The IC50 was 25.1 to 158 nM.

**Q.** And the Ki [2]?
**A.** Its Ki is 0.0398 to 0.316 nM.

**Q.** `Cc1cccc(-c2nccc(Nc3ccnc(Nc4nc(CN(C)C5CNC5)cs4)n3)n2)n1` [Compound 467, N2-[4-[[azetidin-3-yl(methyl)amino]methyl]thiazol-2-yl]-N4-[2-(6-methyl-2-pyridyl)pyrimidin-4-yl]pyrimidine-2,4-diamine] was tested. Which IC50 [1] did it give?
**A.** Its IC50 is 25.1 to 158 nM.

**Q.** And the Ki [2]?
**A.** The Ki was 0.398 to 3.16 nM.

**Q.** With `Cc1cccc(-c2nccc(Nc3ccnc(Nc4ccc(-c5c(C)noc5C)cc4)n3)n2)n1` [Compound 469, N2-[4-(3,5-dimethylisoxazol-4-yl)phenyl]-N4-[2-(6-methyl-2-pyridyl)pyrimidin-4-yl]pyrimidine-2,4-diamine] as the compound, how does the IC50 [1] read?
**A.** The IC50 was 25.1 to 158 nM.

**Q.** And the Ki [2]?
**A.** Its Ki is 0.398 to 3.16 nM.

**Q.** What does the source list for `Cc1cccc(-c2nccc(Nc3ccnc(Nc4ccc(CN5[C@H](C)CNC[C@@H]5C)cc4)n3)n2)n1` [Compound 470, N2-[4-[[(2R,6S)-2,6-dimethylpiperazin-1-yl]methyl]phenyl]-N4-[2-(6-methyl-2-pyridyl)pyrimidin-4-yl]pyrimidine-2,4-diamine]?
**A.** IC50 [1]: 25.1 to 158 nM; Ki [2]: 0.0398 to 0.316 nM

**Q.** For `Cc1cccc(-c2nccc(Nc3ccnc(Nc4ccc(N5CCC(CNCc6ccccc6)CC5)cc4)n3)n2)n1` [Compound 471, N2-[4-[4-[(benzylamino)methyl]-1-piperidyl]phenyl]-N4-[2-(6-methyl-2-pyridyl)pyrimidin-4-yl]pyrimidine-2,4-diamine], which IC50 [1] is on record?
**A.** Its IC50 is 200 to 1260 nM.

**Q.** And the Ki [2]?
**A.** Its Ki is 0.398 to 3.16 nM.

**Q.** Which IC50 [1] does the source give for `Cc1cccc(-c2nccc(Nc3ccnc(Nc4ccc(N5CCC(C(=O)OC6CCN(C)C6)CC5)cc4)n3)n2)n1` (stereo not shown) [Compound 472, (1-methylpyrrolidin-3-yl) 1-[4-[[4-[[2-(6-methyl-2-pyridyl)pyrimidin-4-yl]amino]pyrimidin-2-yl]amino]phenyl]piperidine-4-carboxylate] here?
**A.** Its IC50 is 25.1 to 158 nM.

**Q.** And the Ki [2]?
**A.** The Ki was 0.0398 to 0.316 nM.

**Q.** With `Cc1cccc(-c2nccc(Nc3ccnc(Nc4ccc(N5CCN(C6CNC6)CC5)cc4)n3)n2)n1` [Compound 473, N2-[4-[4-(azetidin-3-yl)piperazin-1-yl]phenyl]-N4-[2-(6-methyl-2-pyridyl)pyrimidin-4-yl]pyrimidine-2,4-diamine] as the compound, how does the IC50 [1] read?
**A.** Its IC50 is 200 to 1260 nM.

**Q.** And the Ki [2]?
**A.** The Ki was 0.0398 to 0.316 nM.

**Q.** Which results are given for `Cc1cccc(-c2nccc(Nc3ccnc(Nc4ccc(CN5CCC(CO)CC5)cc4)n3)n2)n1` [Compound 474, [1-[[4-[[4-[[2-(6-methyl-2-pyridyl)pyrimidin-4-yl]amino]pyrimidin-2-yl]amino]phenyl]methyl]-4-piperidyl]methanol]?
**A.** IC50 [1]: 25.1 to 158 nM; Ki [2]: ≤ 0.0316 nM

**Q.** Which results are given for `Cc1cccc(-c2nccc(Nc3ccnc(Nc4ccc(N5CCOCC5)cc4)n3)n2)n1` [Compound 475, N4-(2-(6-methylpyridin-2-yl)pyrimidin-4-yl)-N2-(4-morpholinophenyl)pyrimidine-2,4-diamine]?
**A.** IC50 [1]: ≤ 20 nM; Ki [2]: 0.0398 to 0.316 nM

**Q.** What does the source list for `Cc1cccc(-c2nccc(Nc3ccnc(Nc4ccc(CC5CCNCC5)cc4)n3)n2)n1` [Compound 476, N4-[2-(6-methyl-2-pyridyl)pyrimidin-4-yl]-N2-[4-(4-piperidylmethyl)phenyl] pyrimidine-2,4-diamine]?
**A.** IC50 [1]: 25.1 to 158 nM; Ki [2]: 0.0398 to 0.316 nM

**Q.** `Cc1cccc(-c2nccc(Nc3ccnc(Nc4cccc(NC(=O)NCC5CNC5)c4)n3)n2)n1` [Compound 477, 1-(azetidin-3-ylmethyl)-3-[3-[[4-[[2-(6-methyl-2-pyridyl)pyrimidin-4-yl]amino]pyrimidin-2-yl]amino]phenyl]urea] was tested. Which IC50 [1] did it give?
**A.** Its IC50 is no more than 20 nM.

**Q.** What about the Ki [2] of the same compound?
**A.** Its Ki is 0.0398 to 0.316 nM.

**Q.** What does the source list for `Cc1cccc(-c2nccc(Nc3ccnc(Nc4ccc(N5CCN(CCN)CC5)cc4)n3)n2)n1` [Compound 478, N2-[4-[4-(2-aminoethyl)piperazin-1-yl]phenyl]-N4-[2-(6-methyl-2-pyridyl)pyrimidin-4-yl]pyrimidine-2,4-diamine]?
**A.** IC50 [1]: 200 to 1260 nM; Ki [2]: 0.0398 to 0.316 nM

**Q.** For `Cc1cccc(-c2nccc(Nc3ccnc(Nc4ccc(N5CCCC(C(=O)O[C@@H]6CCNC6)C5)cc4)n3)n2)n1` (stereo partly drawn) [Compound 479, [(3R)-pyrrolidin-3-yl] 1-[4-[[4-[[2-(6-methyl-2-pyridyl)pyrimidin-4-yl]amino]pyrimidin-2-yl]amino]phenyl]piperidine-3-carboxylate], which IC50 [1] is on record?
**A.** The IC50 was 25.1 to 158 nM.

**Q.** And the Ki [2]?
**A.** Its Ki is 0.0398 to 0.316 nM.
